The results in this text go back to US12312332B2 (Merck Sharp & Dohme LLC., priority 2019, dated 2025).

In this assay the target is T1, human OX2R (Homo sapiens, UniProt O43614).
T1 construct: expressed in transfected cells; host or cells: Chinese hamster ovary (CHO) cells, kept under G418 selection
T1 sequence (O43614 1-444): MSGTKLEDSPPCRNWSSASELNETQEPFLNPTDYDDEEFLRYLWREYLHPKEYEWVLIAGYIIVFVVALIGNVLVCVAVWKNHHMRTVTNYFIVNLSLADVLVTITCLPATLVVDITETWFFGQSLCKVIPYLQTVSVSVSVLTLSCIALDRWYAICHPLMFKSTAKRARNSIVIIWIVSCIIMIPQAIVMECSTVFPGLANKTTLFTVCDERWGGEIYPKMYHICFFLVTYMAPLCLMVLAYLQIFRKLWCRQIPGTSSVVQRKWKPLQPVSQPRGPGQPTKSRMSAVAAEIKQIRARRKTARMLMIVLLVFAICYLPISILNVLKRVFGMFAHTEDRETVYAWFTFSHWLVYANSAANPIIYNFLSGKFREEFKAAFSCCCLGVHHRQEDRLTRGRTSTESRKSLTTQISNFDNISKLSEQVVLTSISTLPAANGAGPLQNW
Nature of the assay: IPOne (IP-One) orexin receptor agonist assay in CHO cells expressing human OX2R. It counts as cell-based. To be noted: for EC50: CHO cells expressing human OX2R, IP-One detection, 2 hours incubation, four parameter logistic fit, read-out: OX2R Potency, EC50; for % max agonist effect (Emax): human OX2R, percentage of sample raw value/mean max effect (reference compound at 1 uM with 100% activity). An excerpt: The utility of the compounds in accordance with the present invention as orexin receptor OX1R and/or OX2R agonists may be readily determined without undue experimentation by methodology well known in the art. Both the OX1R and/or OX2R G-coupled protein receptors (GPCRs) couple through the Gaq signaling pathway, which ultimately promotes calcium mobilization via inositol triphosphate (IP3) production. […] The utility of the compounds in accordance with the present invention as orexin receptor OX1R and/or OX2R agonists may be determined utilizing this assay.
In a typical experiment, the OX1 and OX2 receptor agonist activity is determined in accordance with the following general experimental method. Chinese hamster ovary (CHO) cells expressing human OX1R and/or the human OX2R were grown in Iscove's modified DMEM containing glutaMAX™, 1% G418, 100 U/mL penicillin, 100 μg/mL streptomycin and 10% heat-inactivated qualified fetal bovine serum (FBS). […] During this incubation, IP-one detection reagents were prepared (38:1:1 lysis buffer:D2:AB-cryptate reagents).
For each compound, data were fit to a four parameter logistic fit (ActivityBase software) and the EC50 was reported as the inflection point of the resulting curve. Percent effect for each test compound was determined as the percentage of sample raw value/mean max effect, where the mean max effect was derived from the mean raw value of 32 control wells per assay plate (using Orexin A (cat #003-30) at 1 μM for human OX1R and a reference compound at 1 uM with 100% activity previously established by comparison to Orexin A for human OX2R). The intrinsic orexin receptor agonist activity of a compound which may be used in the present invention may be determined by these assays.

For `CS(=O)(=O)N[C@H]1CCN(c2cc(F)cnc2O)[C@H]1CO[C@H]1CC[C@@H](c2ccccc2)CC1` [Example 129, N-((2R,3S)-1-(5-fluoro-2-hydroxypyridin-3-yl)-2-((((CIS)-4-phenylcyclohexyl)oxy)methyl)pyrrolidin-3-yl)methanesulfonamide], the EC50 was 821 nM and the “% max agonist effect (Emax)” value is on record as 99.7%.
`CC(C)(O)c1ccc(N2CC[C@H](NS(C)(=O)=O)[C@@H]2CO[C@H]2CC[C@@H](c3ccccc3)CC2)cn1` [Example 61, N-((2R,3S)-1-(6-(2-hydroxypropan-2-yl)pyridin-3-yl)-2-((((CIS)-4-phenylcyclohexyl)oxy)methyl)pyrrolidin-3-yl)methanesulfonamide]: the EC50 was 38.3 nM and the “% max agonist effect (Emax)” value is 101.3%.
The matching figures for `CS(=O)(=O)N[C@H]1CCN(c2ccccn2)[C@H]1CO[C@H]1CC[C@@H](c2ccccc2)CC1` [Example 16, N-((2R,3S)-2-((((CIS)-4-phenylcyclohexyl)oxy)methyl)-1-(pyridin-2-yl)pyrrolidin-3-yl)methanesulfonamide]: 174 nM and 101.3%.
The matching figures for `CS(=O)(=O)N[C@H]1CCN(c2cc(O)ccn2)[C@H]1CO[C@H]1CC[C@@H](c2ccccc2)CC1` [Example 75, N-((2R,3S)-1-(4-hydroxypyridin-2-yl)-2-((((CIS)-4-phenylcyclohexyl)oxy)methyl)pyrrolidin-3-yl)methanesulfonamide]: 0.8 nM and 100.4%.
Turning to `Cn1ccc(N2CC[C@H](NS(C)(=O)=O)[C@@H]2CO[C@H]2CC[C@@H](c3ccccc3)CC2)cc1=O` [Example 118, N-((2R,3S)-1-(1-methyl-2-oxo-1,2-dihydropyridin-4-yl)-2-((((CIS)-4-phenylcyclohexyl)oxy)methyl)pyrrolidin-3-yl)methanesulfonamide], the EC50 was found to be 33.2 nM and the “% max agonist effect (Emax)” value was found to be 100.2%.
Consider `CS(=O)(=O)N[C@H]1CCN(c2cncc(-c3ccccc3)c2)[C@H]1CO[C@H]1CC[C@@H](c2ccccc2)CC1` (relative stereo) [Example 1, N-((CIS)-2-((((CIS)-4-Phenylcyclohexyl)oxy)methyl)-1-(5-phenylpyridin-3-yl)pyrrolidin-3-yl)methanesulfonamide], for which the EC50 was > 10000 nM and the “% max agonist effect (Emax)” value is reported as 35.7%.
The matching figures for `CS(=O)(=O)N[C@H]1CCN(c2ccc(C#N)cn2)[C@H]1CO[C@H]1CC[C@@H](c2ccccc2)CC1` [Example 132, N-((2R,3S)-1-(5-cyanopyridin-2-yl)-2-((((CIS)-4-phenylcyclohexyl)oxy)methyl)pyrrolidin-3-yl)methanesulfonamide]: > 10000 nM and 75.3%.
Turning to `Cc1cccnc1N1CC[C@H](NS(C)(=O)=O)[C@@H]1CO[C@H]1CC[C@@H](c2ccccc2)CC1` [Example 125, N-((2R,3S)-1-(3-methylpyridin-2-yl)-2-((((CIS)-4-phenylcyclohexyl)oxy)methyl)pyrrolidin-3-yl)methanesulfonamide], the EC50 worked out at 59.2 nM and the “% max agonist effect (Emax)” value is reported as 100%.
The matching figures for `CS(=O)(=O)N[C@H]1CCN(c2ccsc2)[C@H]1CO[C@H]1CC[C@@H](c2ccccc2)CC1` [Example 19, N-((2R,3S)-2-((((CIS)-4-phenylcyclohexyl)oxy)methyl)-1-(thiophen-3-yl)pyrrolidin-3-yl)methanesulfonamide]: 347 nM and 99.8%.
The matching figures for `CS(=O)(=O)N[C@H]1CCN(c2cscn2)[C@H]1CO[C@H]1CC[C@@H](c2ccccc2)CC1` [Example 110, N-((2R,3S)-2-((((CIS)-4-phenylcyclohexyl)oxy)methyl)-1-(thiazol-4-yl)pyrrolidin-3-yl)methanesulfonamide]: 17.9 nM and 102%.
With `CS(=O)(=O)N[C@H]1CCN(c2ccc(CO)nc2)[C@H]1CO[C@H]1CC[C@@H](c2ccccc2)CC1` [Example 71, N-((2R,3S)-1-(6-(hydroxymethyl)pyridin-3-yl)-2-((((CIS)-4-phenylcyclohexyl)oxy)methyl)pyrrolidin-3-yl)methanesulfonamide], the EC50 turned out to be 23.8 nM and the “% max agonist effect (Emax)” value turned out to be 101.1%.
In the case of `Cc1ccncc1N1CC[C@H](NS(C)(=O)=O)[C@@H]1CO[C@H]1CC[C@@H](c2ccccc2)CC1` [Example 81, N-((2R,3S)-1-(4-Methylpyridin-3-yl)-2-((((CIS)-4-phenylcyclohexyl)oxy)methyl)pyrrolidin-3-yl)methanesulfonamide], the EC50 was determined as 24.5 nM and the “% max agonist effect (Emax)” value is 100.9%.
The matching figures for `CS(=O)(=O)N[C@H]1CCN(c2cccc(C#N)c2)[C@H]1CO[C@H]1CC[C@@H](c2ccccc2)CC1` [Example 147, N-((2R,3S)-1-(3-cyanophenyl)-2-((((CIS)-4-phenylcyclohexyl)oxy)methyl)pyrrolidin-3-yl)methanesulfonamide]: > 10000 nM and 74.1%.
The matching figures for `CS(=O)(=O)N[C@H]1CCN(c2cc(O)c(Cl)cn2)[C@H]1CO[C@H]1CC[C@@H](c2cccc(F)c2)CC1` [Example 97, N-((2R,3S)-1-(5-chloro-4-hydroxypyridin-2-yl)-2-((((CIS)-4-(3-fluorophenyl)cyclohexyl)oxy)methyl)pyrrolidin-3-yl)methanesulfonamide]: 0.6 nM and 100.9%.
Consider `CS(=O)(=O)N[C@H]1CCN(c2ccc(F)c(C(F)F)c2)[C@H]1CO[C@H]1CC[C@@H](c2ccccc2)CC1` [Example 21, N-((2R,3S)-1-(3-(difluoromethyl)-4-fluorophenyl)-2-((((CIS)-4-phenylcyclohexyl)oxy)methyl)pyrrolidin-3-yl)methanesulfonamide], for which the EC50 is 8490 nM and the “% max agonist effect (Emax)” value came out at 57.0%.
The matching figures for `CS(=O)(=O)N[C@H]1CCN(c2ccc(OC(F)F)cn2)[C@H]1CO[C@H]1CC[C@@H](c2ccccc2)CC1` [Example 35, N-((2R,3S)-1-(5-(difluoromethoxy)pyridin-2-yl)-2-((((CIS)-4-phenylcyclohexyl)oxy)methyl)pyrrolidin-3-yl)methanesulfonamide]: 176 nM and 104.3%.
On to `CS(=O)(=O)N[C@H]1CCN(c2ccncc2CO)[C@H]1CO[C@H]1CC[C@@H](c2ccccc2)CC1` [Example 56, N-((2R,3S)-1-(3-(hydroxymethyl)pyridin-4-yl)-2-((((CIS)-4-phenylcyclohexyl)oxy)methyl)pyrrolidin-3-yl)methanesulfonamide], for which the EC50 is > 10000 nM and the “% max agonist effect (Emax)” value is reported as 61.6%.
The matching figures for `CS(=O)(=O)N[C@H]1CCN(c2cc(C#N)ccn2)[C@H]1CO[C@H]1CC[C@@H](c2ccccc2)CC1` [Example 138, N-((2R,3S)-1-(4-cyanopyridin-2-yl)-2-((((CIS)-4-phenylcyclohexyl)oxy)methyl)pyrrolidin-3-yl)methanesulfonamide]: 72.1 nM and 99.8%.
The matching figures for `Cn1cccc(N2CC[C@H](NS(C)(=O)=O)[C@@H]2CO[C@H]2CC[C@@H](c3ccccc3)CC2)c1=O` [Example 111, N-((2R,3S)-1-(1-methyl-2-oxo-1,2-dihydropyridin-3-yl)-2-((((CIS)-4-phenylcyclohexyl)oxy)methyl)pyrrolidin-3-yl)methanesulfonamide]: 108 nM and 100%.
For `CS(=O)(=O)N[C@H]1CCN(c2ccc(C(F)F)nc2)[C@H]1CO[C@H]1CC[C@@H](c2ccccc2)CC1` [Example 24, N-((2R,3S)-1-(6-(difluoromethyl)pyridin-3-yl)-2-((((CIS)-4-phenylcyclohexyl)-oxy)methyl)pyrrolidin-3-yl)methanesulfonamide], the half-maximal effective concentration (EC50) was 50 nM and the “% max agonist effect (Emax)” value amounted to 100.7%.
Regarding `CS(=O)(=O)N[C@H]1CCN(c2ccns2)[C@H]1CO[C@H]1CC[C@@H](c2ccccc2)CC1` [Example 18, N-((2R,3S)-1-(isothiazol-5-yl)-2-((((CIS)-4-phenylcyclohexyl)oxy)methyl)pyrrolidin-3-yl)methanesulfonamide], the concentration giving a half-maximal response (EC50) came to 2910 nM and the “% max agonist effect (Emax)” value is recorded as 87.4%.
